The text below walks through data of US6096788A, “Antimalaria and antibabesiosis agents and pharmaceutical compositions containing such agents” (priority 1996, dated 2000).

A short description of series [1]: Therapeutic index in infected mice (antimalaria activity compared with semi-chronic toxicity). Conditions: mouse, in vivo, i.p. or s.c., twice a day for four days, ratio of activity over toxicity (LD50). In kind it is in vivo. How it is done: In order to evaluate the therapeutic index of the different products, the activity of these products was tested in vivo and compared with […] toxicity in animals. This activity was measured using the test described by PETERS W. (Chemotherapy and Drug resistance in Malaria, 1970). A compound was administered for four consecutive days to mice previously infected with Plasmodium vinckei, petterei or chabaudi. The said compound was dissolved in a 0.9% NaCl solution. The preparations were thus administered intraperitoneally or subcutaneously in male Swiss mice infected by intravenous injection of Plasmodium petterei or Plasmodium chadaudi (10^6 infected cells). The compound was administered twice a day for four consecutive days, the first injection being performed two hours after the infestation and the second, 10 hours later. The parasitemia was determined on blood smears the day after the end of treatment. Toxicity was measured in vivo following the same schedule, the animals having received, under the same administration conditions as above, two injections per day for four days (semi-chronic toxicity). The results are expressed in lethal dose 50 (LD50), i.e. the dose causing death in 50% of the animals.
The results of these trials are summarized in Table I, below, and expressed as therapeutic index, or the ratio of activity over toxicity measured under the identical conditions described above.

Series [2] has as its system Babesia bovis, Babesia canis. Description: In vitro antibabesia activity, (3H) hypoxanthine incorporation. In kind it is cell-based. The settings on record: score from ED50 of (3H) hypoxanthine incorporation. From the text:
The screening process for antimalaria activity, based on parasite incorporation of (^3 H) hypoxanthine was used to test the antimetabolic activity of such components against Babesia bovis, Babesia canis. A tight relationship was found between the rate of (^3 H) hypoxanthine incorporation using standard measurements and the percentage of parasitized cells determined by microscopy. […] The score was ++ for the same activity at a concentration of 0.01 to 0.1 micromoles and finally + for a concentration under or equal to 1 micromole.

`CCC[N+](CCC)(CCC)CCCCCCCCCCCCCCCCCCCC[N+](CCC)(CCC)CCC.[Br-].[Br-]` [EXAMPLE 10, N,N,N,N', N',N'-hexapropyl-1,20-eicosanediaminium dibromide]: in series [1], the selectivity ratio is 14. Further, the “Antibabesia activity at 10 millimoles” value in series [2] is reported as “+ (a concentration under or equal to 1 micromole)”. Taken in the same sequence, the figures for `C#CCC[N+](C)(C)CCCCCCCCCCCCCC[N+](C)(C)CCC#C.[Br-].[Br-]` [EXAMPLE 26, N,N'-di(3-butynyl)-N,N,N',N'-tetramethyl-1,14-tetradecanediaminium dibromide] were 45 and “++ (the same activity at a concentration of 0.01 to 0.1 micromoles)”. As to `CCC[N+](C)(CC)CCCCCCCCCCCCCCCCCCCCCC[N+](C)(CC)CCC` (centres unmarked) [EXAMPLE 7, N,N'-dimethyl-N,N'-diethyl-N N'-dipropyl-1,22-cosanediaminium dibromide], in series [1], the selectivity ratio was 35. In addition, the “Antibabesia activity at 10 millimoles” value in series [2] is “++ (the same activity at a concentration of 0.01 to 0.1 micromoles)”. Regarding `C[N+]1(CCCCCCCCCCCCCCCCCCCCCC[N+]2(C)CCCC2CO)CCCC1CO` (centres unmarked) [EXAMPLE 19, 1,1'-(1,22-docosanediyl)bis(2-hydroxymethl-1-methylpyrrolidium) dibromide], the selectivity ratio in series [1] amounted to 40. Besides, the “Antibabesia activity at 10 millimoles” value in series [2] was “+ (a concentration under or equal to 1 micromole)”. Consider `C[N+]1(CCCCCCCCCCCCCC[N+]2(C)CCCC2)CCCC1` [EXAMPLE 16, 1,1'-(1,14-tetradecanediyl)bis(1-methylpyrrolidium) dibromide], for which, in series [1], the selectivity ratio was 8. Also, the “Antibabesia activity at 10 millimoles” value in series [2] is given as “+++ (a 50% inhibition of (^3 H) hypoxanthine incorporation (ED50), these molecules having a concentration less than or equal to 0.01 micromoles)”. Regarding `CC[N+](C)(CC)CCCCCCCCCCCCCCCC[N+](C)(CC)CC` [EXAMPLE 13, N,N'-dimethyl-,N,N,N',N'-tetraethyl-1,16-hexadecanediaminium dibromide], the selectivity ratio in series [1] turned out to be 6. Further, the “Antibabesia activity at 10 millimoles” value in series [2] is given as “+++ (a 50% inhibition of (^3 H) hypoxanthine incorporation (ED50), these molecules having a concentration less than or equal to 0.01 micromoles)”. With `CC[N+](C)(CC)CCCCCCCCCCCCCCCCCC[N+](C)(CC)CC` [EXAMPLE 14, N,N'-dimethyl-,N,N,N',N'-tetraethyl-1,18-octadecanediaminium dibromide], the selectivity ratio in series [1] worked out at 14. In addition, in series [2], the “Antibabesia activity at 10 millimoles” value is given as “+++ (a 50% inhibition of (^3 H) hypoxanthine incorporation (ED50), these molecules having a concentration less than or equal to 0.01 micromoles)”. For `C=CC[N+](C)(C)CCCCCCCCCCCCCC[N+](C)(C)CC=C.[Br-].[Br-]` [EXAMPLE 25, N,N'-di(2-propenyl)-N,N,N',N'-tetramethyl-1,14-tetradecanediaminium dibromide], the selectivity ratio in series [1] worked out at 15. The “Antibabesia activity at 10 millimoles” value in series [2] is recorded as “+++ (a 50% inhibition of (^3 H) hypoxanthine incorporation (ED50), these molecules having a concentration less than or equal to 0.01 micromoles)”. Taken in the same sequence, the figures for `CCC[N+](CCC)(CCC)CCCCCCCCCCCCCCCCCCCCCCCC[N+](CCC)(CCC)CCC.[Br-].[Br-]` [EXAMPLE 11, N,N,N,N',N',N'-hexapropyl-1,24-tetracosanediaminium dibromide] were 28 and “+ (a concentration under or equal to 1 micromole)”. For the molecule `CCC[N+](C)(CC)CCCCCCCCCCCCCCCCC[N+](C)(CC)CCC.[Br-].[Br-]` (centres unmarked) [EXAMPLE 4, N,N'-dimethyl-N,N'-diethyl-N,N'-dipropyl-1,17-heptadecanediaminium dibromide], the selectivity ratio in series [1] came out at 17. Also, the “Antibabesia activity at 10 millimoles” value in series [2] is “++ (the same activity at a concentration of 0.01 to 0.1 micromoles)”. Take `CCCCCCCCCCCC[N+](C)(C)CCCCCCCCCCCCCCCCCC[N+](C)(C)CCCCCCCCCCCC` [EXAMPLE 23]: the selectivity ratio in series [1] came out at 35. The “Antibabesia activity at 10 millimoles” value in series [2] is listed as “+ (a concentration under or equal to 1 micromole)”. For `CC[N+](C)(CC)CCCCCCCCCCCCCCCCCCCCC[N+](C)(CC)CC` [EXAMPLE 15, N,N'-dimethyl-,N,N,N',N'-tetraethyl-1,21-heneicosanediaminium dibromide], the selectivity ratio in series [1] amounted to 12. In series [2], the “Antibabesia activity at 10 millimoles” value is given as “+++ (a 50% inhibition of (^3 H) hypoxanthine incorporation (ED50), these molecules having a concentration less than or equal to 0.01 micromoles)”. With `C[N+]1(CCCCCCCCCCCCCCCC[N+]2(C)CCOCC2)CCOCC1` [EXAMPLE 21, 1,1'-(1,16-hexadecanediyl)bis(1-methylmorphofinium) dibromide], the selectivity ratio in series [1] stood at 25. Also, the “Antibabesia activity at 10 millimoles” value in series [2] is given as “+++ (a 50% inhibition of (^3 H) hypoxanthine incorporation (ED50), these molecules having a concentration less than or equal to 0.01 micromoles)”.

As for `CCC[N+](CCC)(CCO)CCCCCCCCCCCCCCCCCCCC[N+](CCC)(CCC)CCO.[Br-].[Br-]` [EXAMPLE 30, N,N'-di(2-hydroxyethyl)-N,N,N',N'-tetrapropyl-1,20-eicosanediaminium dibromide], the selectivity ratio in series [1] was 55. Moreover, in series [2], the “Antibabesia activity at 10 millimoles” value is “+++ (a 50% inhibition of (^3 H) hypoxanthine incorporation (ED50), these molecules having a concentration less than or equal to 0.01 micromoles)”. For the molecule `CCC[N+](CCC)(CCC)CCCCCCCCCCCCCC[N+](CCC)(CCC)CCC.[Br-].[Br-]` [EXAMPLE 8, N,N,N,N',N',N'-hexapropyl-1,14-tetradecanediaminium dibromide], in series [1], the selectivity ratio is 20. The “Antibabesia activity at 10 millimoles” value in series [2] is recorded as “+ (a concentration under or equal to 1 micromole)”. As to `CCC[N+](C)(CC)CCCCCCCCCCCCCCCCCC[N+](C)(CC)CCC.[Br-].[Br-]` (centres unmarked) [EXAMPLE 5, N,N'-dimethyl-N,N'-diethyl-N,N'-dipropyl-1,18-octadecanediaminium dibromide], the selectivity ratio in series [1] turned out to be 12. Also, the “Antibabesia activity at 10 millimoles” value in series [2] was “+++ (a 50% inhibition of (^3 H) hypoxanthine incorporation (ED50), these molecules having a concentration less than or equal to 0.01 micromoles)”. Take `CCC[N+](C)(CC)CCCCCCCCCCCCCCCC[N+](C)(CC)CCC.[Br-].[Br-]` (centres unmarked) [EXAMPLE 3, N,N'-dimethyl-N,N'-diethyl-N,N'-dipropyl-1,16-hexadecanediaminium dibromide]: in series [1], the selectivity ratio stood at 15. Turning to `CCC[N+](C)(CC)CCCCCCCCCCCCCC[N+](C)(CC)CCC` (centres unmarked) [EXAMPLE 1, N,N'-dimethyl-N,N'-diethyl-N,N'-dipropyl-1,14 tetradecanediaminium, dibromide], the selectivity ratio in series [1] stood at 50. Further, the “Antibabesia activity at 10 millimoles” value in series [2] is “++ (the same activity at a concentration of 0.01 to 0.1 micromoles)”. On to `CCC[N+](CCC)(CCCCCCCCCCCCCC[N+](CCC)(CCC)CCOCC)CCOCC.[Br-].[Br-]` [EXAMPLE 28, N,N'-di(2-ethoxyethyl)-N,N,N',N'-tetrapropyl-1,14-tetradecanediaminium dibromide], for which the selectivity ratio in series [1] was found to be 40. Besides, the “Antibabesia activity at 10 millimoles” value in series [2] was “+++ (a 50% inhibition of (^3 H) hypoxanthine incorporation (ED50), these molecules having a concentration less than or equal to 0.01 micromoles)”. Taken in the same sequence, the figures for `CCC[N+](C)(CC)CCCCCCCCCCCCCCCCCCCC[N+](C)(CC)CCC.[Br-].[Br-]` (centres unmarked) [EXAMPLE 6, N,N'-dimethyl-N,N'-diethyl-N,N'-dipropyl-1,20-eicosanediaminium dibromide] were 15 and “++ (the same activity at a concentration of 0.01 to 0.1 micromoles)”. The corresponding values for `CCC[N+](CCC)(CCO)CCCCCCCCCCCCCCCC[N+](CCC)(CCC)CCO.[Br-].[Br-]` [EXAMPLE 29, N,N'-di-(2-hydroxyethyl)-N,N,N',N'-tetrapropyl-1,16 hexadecane diaminium dibromide] are 12 and “++ (the same activity at a concentration of 0.01 to 0.1 micromoles)”. The corresponding values for `CCC[N+](C)(CC)CCCCCCCCCCCCCCC[N+](C)(CC)CCC.[Br-].[Br-]` (centres unmarked) [EXAMPLE 2, N,N'-dimethyl-N,N'-diethyl-N,N'-dipropyl-1,15-pentadecanediaminium dibromide] are 42 and “+ (a concentration under or equal to 1 micromole)”. Turning to `C#CC[N+](C)(C)CCCCCCCCCCCCCC[N+](C)(C)CC#C.[Br-].[Br-]` [EXAMPLE 24, N,N'-di(2-propynyl)-N,N,N',N'-tetramethyl-1,14-tetradecandiaminium dibromide], the selectivity ratio in series [1] was 12. In addition, the “Antibabesia activity at 10 millimoles” value in series [2] is on record as “++ (the same activity at a concentration of 0.01 to 0.1 micromoles)”. Take `CCCCCCCCCCCC[N+](C)(C)CCCCCCCCCCCCCCCC[N+](C)(C)CCCCCCCCCCCC.[Br-].[Br-]` [EXAMPLE 22, N,N'-didodecyl-N,N,N',N'-tetramethyl-1,16-hexadecanediaminium dibromide]: in series [1], the selectivity ratio stood at 20. Further, the “Antibabesia activity at 10 millimoles” value in series [2] is “++ (the same activity at a concentration of 0.01 to 0.1 micromoles)”.
